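Each compound was tested at five concentrations against cells in 96-well plates for 48 hours. GI50 is the concentration that inhibits growth by half.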 The source made the active and inactive calls. No stated cut-off is given here; in the data, active = GI50 up to about 1.1 µM and inactive = higher.
Assays:
Test in all cases: DTP human tumour cell line panel, 48 h
[1] = system: T47D
[2] = system: IGROV-1
[3] = system: OVCAR-5
[4] = system: OVCAR-8
[5] = system: Malme-3M
[6] = system: MOLT-4
[7] = system: KM12
[8] = system: UO-31
[9] = system: M14
[10] = system: HCC 2998
[11] = system: UACC-257
[12] = system: LOX IMVI
[13] = system: UACC-62
[14] = system: CCRF-CEM
[15] = system: SNB-75
[16] = system: HT-29
[17] = system: NCI/ADR-RES
[18] = system: NCI-H226
[19] = system: SF-295
[20] = system: NCI-H23
[21] = system: SK-OV-3
[22] = system: SNB-19
[23] = system: CAKI-1
[24] = system: EKVX
[25] = system: SN12C
[26] = system: OVCAR-4
[27] = system: RXF 393
[28] = system: MDA-N
[29] = system: COLO 205
[30] = system: SF-268
[31] = system: HL-60
[32] = system: A549
[33] = system: A498
[34] = system: MDA-MB-435
[35] = system: NCI-H522
[36] = system: HCT-15
[37] = system: DU-145
[38] = system: 786-0
[39] = system: PC-3
[40] = system: BT-549
[41] = system: SK-MEL-5
[42] = system: MCF7
[43] = system: OVCAR-3
[44] = system: MDA-MB-231
[45] = system: TK-10
[46] = system: NCI-H460
[47] = system: SW-620
[48] = system: SF-539
[49] = system: HCT-116
[50] = system: Hs-578T
[51] = system: SK-MEL-28
[52] = system: HOP-62
[53] = system: HOP-92
[54] = system: SK-MEL-2
[55] = system: K562
[56] = system: U-251
[57] = system: ACHN

Measured: GI50

COc1cc2oc(-c3ccc4c(c3)OCO4)c(OC)c(=O)c2c(OC)c1OC
inactive: [1] > 100 µM | [2] 67.9 µM | [3] > 100 µM | [4] 53.3 µM | [5] > 100 µM | [6] > 100 µM | [7] > 100 µM | [8] > 100 µM | [9] > 100 µM | [10] > 100 µM | [11] > 100 µM | [12] > 100 µM | [13] > 100 µM | [14] > 100 µM | [15] 27.2 µM | [16] > 100 µM | [17] > 100 µM | [18] > 100 µM | [19] > 100 µM | [20] 39.4 µM | [21] 44.7 µM | [22] 44.3 µM | [23] 19.1 µM | [24] 66.5 µM | [25] > 100 µM | [26] > 100 µM | [27] 32.7 µM | [28] > 100 µM | [29] > 100 µM | [30] 27.9 µM | [31] 83.2 µM | [32] > 100 µM | [33] 33.7 µM | [34] > 100 µM | [35] > 100 µM | [37] > 100 µM | [38] 94 µM | [39] > 100 µM | [40] 38.7 µM | [41] 51.5 µM | [42] > 100 µM | [43] > 100 µM | [44] > 100 µM | [45] 32.8 µM | [46] > 100 µM | [47] > 100 µM | [48] 45.2 µM | [49] > 100 µM | [50] 52.2 µM | [51] > 100 µM | [52] 27.4 µM | [53] 1.35 µM | [54] > 100 µM | [55] > 100 µM | [56] 38.2 µM | [57] 59.4 µM
> 100 µM: [36]
